Laboratory results: the supplement of paper PMC11061612

Tests used:
[1] = system: OCI-AML3 (Acute Myeloid Leukemia); experiment: Bliss excess, mean over the matrix (fraction); higher = more synergy
Outline: (§1)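 After 24 hours at 37°C and 5% CO2 in 1536-well plates, cells in DMEM/F12 or RPMI plus 10% FBS received two-drug dose matrices for 72 hours. Viability came from CellTiter-Glo 2.0 luminescence and was scaled as inhibition, anchored at 0 by vehicle wells and at 1 by blank wells. Combination Emax is taken as the second-highest inhibition in the matrix, and Bliss excess as the observed combination effect less EA + EB − EA·EB, with EA and EB the single-agent effects.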

[2] = system: OCI-AML3 (Acute Myeloid Leukemia); experiment: combination Emax (second highest fraction inhibited in the dose matrix, 72 h); higher = more inhibition; extreme values may be limits of the assay
Outline: as §1

[3] = system: RPMI-8226 (Plasma Cell Myeloma); experiment: as above
Outline: as §1

[4] = system: SUP-B15 (B-Lymphoblastic Leukemia); experiment: as above
Outline: as §1
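Wherever Bliss excess, mean over the matrix is given: after 72 h of two-drug dosing.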

COc1nnc2ccc(N3CCC(c4ccc(OCCN5CCN(C)C(=O)[C@H]5C)cc4)CC3)nn12 [AZD5153] + C=CCn1c(=O)c2cnc(Nc3ccc(N4CCN(C)CC4)cc3)nc2n1-c1cccc(C(C)(C)O)n1 [AZD1775] (first compound max 1 µM, partner max 1 µM)
Bliss excess [1]: -0.012
combination Emax [2]: 1
combination Emax [3]: 0.845
combination Emax [4]: 0.962

COc1nnc2ccc(N3CCC(c4ccc(OCCN5CCN(C)C(=O)[C@H]5C)cc4)CC3)nn12 [AZD5153] + CC1(C)CCC(CN2CCN(c3ccc(C(=O)NS(=O)(=O)c4ccc(NCC5CCOCC5)c([N+](=O)[O-])c4)c(Oc4cnc5[nH]ccc5c4)c3)CC2)=C(c2ccc(Cl)cc2)C1 [Venetoclax] (first compound max 1 µM, 7x7, partner max 1 µM)
Bliss excess [1]: -0.052
combination Emax [2]: 1
combination Emax [3]: 0.8
combination Emax [4]: 1

COc1nnc2ccc(N3CCC(c4ccc(OCCN5CCN(C)C(=O)[C@H]5C)cc4)CC3)nn12 [AZD5153] + CCN(CCO)CCCOc1ccc2c(Nc3cc(CC(=O)Nc4cccc(F)c4)[nH]n3)ncnc2c1 [AZD2811] (first compound max 1 µM, 7x7, partner max 1 µM)
Bliss excess [1]: 0.05
combination Emax [2]: 1
combination Emax [3]: 0.8
combination Emax [4]: 1

COc1nnc2ccc(N3CCC(c4ccc(OCCN5CCN(C)C(=O)[C@H]5C)cc4)CC3)nn12 [AZD5153] + C[C@@H]1COCCN1C2=NC(=NC(=C2)C3(CC3)[S@](=N)(=O)C)C4=C5C=CNC5=NC=C4 [AZD6738] (first compound max 1 µM, 7x7, partner max 10 µM)
Bliss excess [1]: -0.0454
combination Emax [2]: 1
combination Emax [3]: 0.905
combination Emax [4]: 1

COc1nnc2ccc(N3CCC(c4ccc(OCCN5CCN(C)C(=O)[C@H]5C)cc4)CC3)nn12 [AZD5153] + Cc1c2c(nn1C)CSCc1cc(n(C)n1)CSc1cc(c3ccccc3c1)OCCCc1c(C(=O)O)n(C)c3c-2c(Cl)ccc13 [AZD5991] (first compound max 1 µM, 7x7, partner max 1 µM)
Bliss excess [1]: -0.0565
combination Emax [2]: 1
combination Emax [3]: 1
combination Emax [4]: 1

COc1nnc2ccc(N3CCC(c4ccc(OCCN5CCN(C)C(=O)[C@H]5C)cc4)CC3)nn12 [AZD5153] + Cn1cnc2c(F)c(Nc3ccc(Br)cc3Cl)c(C(=O)NOCCO)cc21 [Selumetinib] (first compound max 1 µM, 7x7, partner max 10 µM)
Bliss excess [1]: -0.0046
combination Emax [2]: 1
combination Emax [3]: 0.913
combination Emax [4]: 1

NC1(C(=O)N[C@@H](CCO)c2ccc(Cl)cc2)CCN(c2ncnc3[nH]ccc23)CC1 [Capivasertib] + CC(=O)c1c(C)c2cnc(Nc3ccc(N4CCNCC4)cn3)nc2n(C2CCCC2)c1=O [Palbociclib] (first compound max 10 µM, 7x7, partner max 10 µM)
Bliss excess [1]: 0.0866
combination Emax [2]: 0.587
combination Emax [3]: 0.483
combination Emax [4]: 0.94

NC1(C(=O)N[C@@H](CCO)c2ccc(Cl)cc2)CCN(c2ncnc3[nH]ccc23)CC1 [Capivasertib] + CC(C)n1c(=O)n(C)c2cnc3cc(F)c(-c4ccc(OCCCN5CCCCC5)nc4)cc3c21 [AZD1390] (first compound max 10 µM, 7x7, partner max 0.3 µM)
Bliss excess [1]: -0.11
combination Emax [2]: 0.37
combination Emax [3]: 0.135
combination Emax [4]: 0.398

NC1(C(=O)N[C@@H](CCO)c2ccc(Cl)cc2)CCN(c2ncnc3[nH]ccc23)CC1 [Capivasertib] + CCN(CCO)CCCOc1ccc2c(Nc3cc(CC(=O)Nc4cccc(F)c4)[nH]n3)ncnc2c1 [AZD2811] (first compound max 10 µM, 7x7, partner max 1 µM)
Bliss excess [1]: -0.095
combination Emax [2]: 0.585
combination Emax [3]: 0.422
combination Emax [4]: 0.929

NC1(C(=O)N[C@@H](CCO)c2ccc(Cl)cc2)CCN(c2ncnc3[nH]ccc23)CC1 [Capivasertib] + COc1nnc2ccc(N3CCC(c4ccc(OCCN5CCN(C)C(=O)[C@H]5C)cc4)CC3)nn12 [AZD5153] (first compound max 10 µM, 7x7, partner max 1 µM)
Bliss excess [1]: -0.014
combination Emax [2]: 1
combination Emax [3]: 0.878
combination Emax [4]: 1

NC1(C(=O)N[C@@H](CCO)c2ccc(Cl)cc2)CCN(c2ncnc3[nH]ccc23)CC1 [Capivasertib] + C[C@@H]1COCCN1C2=NC(=NC(=C2)C3(CC3)[S@](=N)(=O)C)C4=C5C=CNC5=NC=C4 [AZD6738] (first compound max 10 µM, 7x7, partner max 10 µM)
Bliss excess [1]: -0.0224
combination Emax [2]: 0.891
combination Emax [3]: 0.875
combination Emax [4]: 0.986

NC1(C(=O)N[C@@H](CCO)c2ccc(Cl)cc2)CCN(c2ncnc3[nH]ccc23)CC1 [Capivasertib] + Cn1cnc2c(F)c(Nc3ccc(Br)cc3Cl)c(C(=O)NOCCO)cc21 [Selumetinib] (first compound max 10 µM, 7x7, partner max 10 µM)
Bliss excess [1]: -0.0291
combination Emax [2]: 0.918
combination Emax [3]: 0.43
combination Emax [4]: 0.805
